Earlier results as cited in patent US20100093758A1, “PYRIDINE SULFONAMIDE MODULATORS OF ENDOTHELIN-A RECEPTOR” (AUSPEX PHARMACEUTICALS, INC., priority 2008, published 2010).

Tests used:
[1] = not given; remark: listed apart in the source

time at which maximum plasma levels are reached (in vivo): ≤ 4.5 h | urinary excretion (in vivo): below 0.1 % of any dose
Compound: COc1ccccc1Oc1c(NS(=O)(=O)c2ccc(C)cn2)nc(-c2ccncc2)nc1OC [Avosentan, 5-Methyl-pyridine-2-sulfonic acid [6-methoxy-5-(2-methoxy-phenoxy)-2-pyridin-4-yl-pyrimidin-4-yl]-amide]
dose dependence of Cmax and AUC (doses up to 100 mg): increase linearly with doses up to 100 mg | food effect on exposure and Cmax (with food): does not affect overall exposure but increases Cmax | fluid retention ([1]; at high concentrations): higher-than-expected rate of fluid retention | adverse events ([1]; typical for vasodilating agents): headache, nausea and vomiting, dizziness, and postural hypotension
